From PubChem BioAssay AID434951 (Broad Institute, 2010)
Calls of active or inactive are those of the source.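 How the source made its calls: active means a fitted half-maximal concentration EC50 for the rise in nuclear signal no higher than ten times the top dose tested; inconclusive means flat fit with activity between 30% and 70%, or unusable fit; inactive means EC50 beyond ten times the top dose.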

molecular target: Hypoxia-inducible factor 1-alpha (Homo sapiens) (UniProt Q16665); assay: activators of HIF1alpha nuclear accumulation, confirmation, imaging, fluorescence, U2OS GFP-HIF1alpha (AID 434951); details: U2OS GFP-HIF1alpha nuclear intensity, high-content imaging
Sequence (Q16665 whole entry, looked up): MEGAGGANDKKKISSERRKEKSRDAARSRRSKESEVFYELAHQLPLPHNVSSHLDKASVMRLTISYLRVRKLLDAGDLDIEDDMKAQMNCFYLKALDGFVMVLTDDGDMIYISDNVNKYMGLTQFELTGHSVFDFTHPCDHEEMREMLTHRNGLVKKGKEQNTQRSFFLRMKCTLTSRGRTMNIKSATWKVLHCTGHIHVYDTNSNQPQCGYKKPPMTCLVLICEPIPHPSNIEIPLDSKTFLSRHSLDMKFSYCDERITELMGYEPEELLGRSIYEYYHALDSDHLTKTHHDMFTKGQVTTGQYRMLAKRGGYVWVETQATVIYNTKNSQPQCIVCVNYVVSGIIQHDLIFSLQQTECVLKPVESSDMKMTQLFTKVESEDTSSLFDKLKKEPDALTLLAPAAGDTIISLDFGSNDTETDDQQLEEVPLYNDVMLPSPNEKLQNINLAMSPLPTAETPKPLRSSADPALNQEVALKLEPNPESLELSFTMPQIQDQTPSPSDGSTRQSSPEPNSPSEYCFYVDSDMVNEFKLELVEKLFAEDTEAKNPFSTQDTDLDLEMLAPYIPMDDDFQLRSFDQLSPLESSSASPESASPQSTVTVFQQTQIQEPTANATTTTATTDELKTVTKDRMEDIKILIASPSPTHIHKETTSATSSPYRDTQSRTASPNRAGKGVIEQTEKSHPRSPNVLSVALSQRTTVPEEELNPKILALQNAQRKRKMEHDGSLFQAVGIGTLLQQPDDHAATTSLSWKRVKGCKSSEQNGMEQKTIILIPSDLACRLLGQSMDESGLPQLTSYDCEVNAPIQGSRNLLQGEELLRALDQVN

SMILES	EC50
CCN1/C(=C/c2ccc3cc(C)ccc3[n+]2CC)Sc2ccccc21	13.1 µM
NC(=S)NNC(=O)c1cc(C(F)(F)F)cc(C(F)(F)F)c1	> 35 µM (inactive)
CCCCCN(C(=O)CCC(=O)OCC(=O)c1ccc(C(C)CC)cc1)c1c(N)n(CCCC)c(=O)[nH]c1=O (stereo unspecified)	> 35 µM (inactive)
C/C(=N\Nc1nc2ccccc2[nH]1)c1ccccn1	1.8 µM
CCC(Sc1nc(C)cc(=O)[nH]1)C(=O)Nc1sc2c(c1C#N)CCCC2 (stereo unspecified)	> 35 µM (inactive)
Cc1ccc(C(=O)CSc2cc(C)[nH]c(=O)n2)cc1	> 35 µM (inactive)
O=C(NCc1ccc(F)cc1)C1CCN(S(=O)(=O)N2CCOCC2)CC1	> 35 µM (inactive)
COc1ccccc1NC(=O)CN(C)S(=O)(=O)c1cccc2cccnc12	> 35 µM (inactive)
Cc1ccc(-c2csc3nc(SCC(=O)N(C)C)n(Cc4ccccc4)c(=O)c23)cc1	5.26 µM
Cc1ccc(N2CC(=O)Nc3c(sc4nc(C)cc(C)c34)C2=O)cc1	> 35 µM (inactive)
OCCCNc1c2ccccc2nc2ccccc12	> 35 µM (inactive)
COc1ccc(-c2csc(NNC3=NCCCCC3)n2)cc1	30.1 µM
CCc1cnccc1CCC(=O)Nc1ccccc1C	> 35 µM (inactive)
COc1ccc(N2CCN(C(=O)CN(C)S(=O)(=O)c3cc(C)ccc3OC)CC2)cc1	> 35 µM (inactive)
Oc1c(C=C2N=c3ccccc3=N2)sc(=S)n1-c1ccccc1	> 35 µM (inactive)
COc1ccc(CCNC(=O)CC(NC(=O)c2ccccc2Cl)c2ccccc2)cc1 (stereo unspecified)	> 35 µM (inactive)
COC(=O)C1C(=O)N2CCCSC2=C(C#N)C1c1cccs1 (stereo unspecified)	> 35 µM (inactive)
COc1ccc(/C=C/C(=O)NCCSCc2ccco2)cc1OC	> 35 µM (inactive)
Cc1ccc(C)c(OCC(=O)O/N=C(\N)c2cccc([N+](=O)[O-])c2)c1	> 35 µM (inactive)
CC(C)C(=O)NC(c1ccc(Cl)cc1Cl)c1ccc2cccnc2c1O (stereo unspecified)	4.88 µM
O=C(CCCCCCC(=O)Nc1ccccc1)NO	5.94 µM
C=CCOc1nc(-c2ccccc2Cl)nc2ccccc12	> 35 µM (inactive)

Continued, values first:

EC50	SMILES
7.41 µM	C=CCNc1nc(-c2ccccn2)nnc1-c1ccccc1
> 35 µM (inactive)	O=C(CS(=O)(=O)c1ccccc1)Nc1ccc(N2CCOCC2)cc1
> 35 µM (inactive)	CCOc1cc(/C=N/NC(=O)c2cccnc2)ccc1OCc1ccc(C(=O)OC)o1
> 35 µM (inactive)	COc1ccc(/C=N/NC(=O)c2ccccc2O)cc1CSc1ccccn1
> 35 µM (inactive)	Cc1ccc2nc(SCC(=O)N3CCCCC3)nc(=O)n2c1
> 35 µM (inactive)	COc1ccc(CC(NC(C)=O)C(=O)NC2CCN(C(=O)Nc3ccc(Cl)cc3)CC2)cc1OC (stereo unspecified)
> 35 µM (inactive)	CCOc1ccc(-c2c(C(=O)N/N=C/c3cccnc3)nnn2-c2nonc2N)cc1
> 35 µM (inactive)	COc1ccccc1N(CC(=O)NC1CCCCC1)S(C)(=O)=O
> 35 µM (inactive)	CN(CC(=O)Nc1ccc(S(=O)(=O)N2CCCC2)cc1)CC(=O)Nc1cccc(F)c1
> 35 µM (inactive)	Cn1cccc1C(=O)NC(=O)COC(=O)c1cc(S(=O)(=O)N2CCCCC2)ccc1Cl
> 35 µM (inactive)	CCOc1cc(N2CCOCC2)c(OCC)cc1NC(C)C(=O)N1CCC(C)CC1 (stereo unspecified)
> 35 µM (inactive)	CCOc1ccc(NC(=O)C2CCN(S(=O)(=O)c3ccc4c(c3)N(C(C)=O)CCO4)CC2)cc1
> 35 µM (inactive)	COc1ccc(Cc2nnc(SCC(=O)NC3CCCCC3)n2C)cc1
> 35 µM (inactive)	CC1CCN(Cc2c(C(=O)N/N=C/c3ccccc3O)nnn2-c2nonc2N)CC1
32.3 µM	Cc1cc(SCC(=O)N/N=C/c2ccc(O)cc2O)c(C)cc1Br
> 35 µM (inactive)	Cc1cc(Oc2ccccc2)nc(N2CCOCC2)n1
> 35 µM (inactive)	Cc1cc(NC(=O)CCCS(=O)(=O)c2nc(-c3cccs3)cc(C(F)(F)F)n2)no1
12.3 µM	O=C(N/N=C/c1c(O)ccc2ccccc12)c1ccc(Br)o1
> 35 µM (inactive)	Cc1cccc2[nH]c(CN(C)C(=O)C3CCC(=O)N(C4CC4)C3)nc12 (stereo unspecified)
19.7 µM	CCOc1ccc(/C=C/C(=O)c2ccccc2)cc1OC
> 35 µM (inactive)	COc1ccc(NC(=O)C2CCN(S(=O)(=O)c3ccc4c(c3)CC(C)N4C(C)=O)CC2)cc1OC (stereo unspecified)
11.2 µM	O=C(N/N=C(\c1ccccc1)c1ccccn1)c1ccccc1Cl
> 35 µM (inactive)	COc1ccc(N2CCN(C(=O)C3COc4ccccc4O3)CC2)cc1 (stereo unspecified)
5.64 µM	CCOC(=O)N1CCN(C(=O)c2ccc(Cn3c(=S)[nH]c4cc(OCC)c(OCC)cc4c3=O)cc2)CC1
> 35 µM (inactive)	CC(C)COc1cccc(C(=O)NNC(=O)C2COc3ccccc3O2)c1 (stereo unspecified)
> 35 µM (inactive)	O=C(CNC(=O)C(c1ccccc1)c1ccccc1)N/N=C/c1ccc(O)cc1O
> 35 µM (inactive)	O=C(COc1ccc(Cl)cc1Cl)N/N=C/CCc1ccccc1
6.68 µM	CN(C)c1nc(-c2ccccn2)nnc1-c1ccccc1
> 35 µM (inactive)	CCC/C(=N/NC(=O)c1cccc(Cl)c1)c1ccccc1
